Holding throughout (assay): inhibition of tumour cell growth, NCI panel, 48 h
The test system of assay [1] is 786-0.
The test system of assay [2] is RXF 393.
Assay [3] concerns OVCAR-5.
Assay [4] concerns LOX IMVI.
For assay [5], the system named is NCI-H460.
In assay [6] the test system is HCT-116.
Assay [7] deals with UACC-257.
Assay [8] deals with SW-620.
Assay [9] deals with MDA-MB-231.
In assay [10] the test system is SNB-75.
For assay [11], the system named is K562.
The test system of assay [12] is SK-MEL-5.
In assay [13] the test system is CCRF-CEM.
Assay [14] has as its system SNB-19.
Assay [15] relates to IGROV-1.
Assay [16] relates to M14.
In assay [17] the test system is SR.
The test system of assay [18] is MDA-N.
Assay [19] relates to NCI-H226.
Assay [20] relates to MOLT-4.

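Cells were grown in 96-well plates and exposed to each compound for 48 hours at five concentrations; endpoints were interpolated linearly between bracketing concentrations, or set to the highest concentration if not reached. GI50: concentration for 50% inhibition of growth.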 Activity calls are given as the source filed them. No stated cut-off is given here; in the data, active = GI50 up to about 1.1 µM and inactive = higher.

For the compound `Nc1nc(SCc2ccccn2)c2ncn(C3CCCC3)c2n1`, the GI50 in assay [1], in assay [2], in [3], in assay [4], in [5] and in assay [6] was > 100 µM (inactive) each time. Further, the GI50 in assay [7] was > 100 µM (inactive); in assay [8], > 100 µM (inactive); in [9] it was > 100 µM (inactive); in [10], 40.5 µM (inactive); in assay [11], > 100 µM (inactive); in assay [12], > 100 µM (inactive). Further, the GI50 in assay [13], in assay [14], in assay [15], in assay [16], in assay [17] and in [18] was > 100 µM (inactive) each time. For the same compound, the GI50 in assay [19] is > 100 µM (inactive).
With `c1cncc(CSc2ncnc3[nH]cnc23)c1`, the GI50 in [1], in assay [2], in assay [3], in assay [4], in [5] and in [6] was > 100 µM (inactive) in each case. The GI50 in [20], in assay [7], in [8], in assay [9], in assay [10] and in assay [11] was > 100 µM (inactive) throughout. For the same compound, the GI50 in assay [12], in [13], in [14], in assay [15], in [16] and in [17] was > 100 µM (inactive) in each case. Moreover, the GI50 in [18] and in [19] was > 100 µM (inactive) each time.
As to `CCOC(=O)n1c(=O)nc2c3c(ncn21)Oc1c(c(-c2ccccc2)nn1-c1ccccc1)C3c1ccc(Cl)cc1` (configuration not stated), the GI50 was 1.52 µM (inactive) in assay [1]; 1.57 µM (inactive) in assay [2]; 2.1 µM (inactive) in [3]; 1.46 µM (inactive) in [4]; 1.68 µM (inactive) in assay [5]; 1.5 µM (inactive) in assay [6]. Further, the GI50 is 1.8 µM (inactive) in assay [7]; 1.71 µM (inactive) in assay [8]; 1.4 µM (inactive) in assay [9]; 1.91 µM (inactive) in [10]; 1.08 µM (active) in [11]; 1.7 µM (inactive) in assay [12]. In addition, the GI50 in [13] is 1.1 µM (active); in assay [14] it was 1.61 µM (inactive); in assay [16], 1.92 µM (inactive); in assay [17], 1.35 µM (inactive); in assay [18], 1.65 µM (inactive); in assay [19] it was 1.63 µM (inactive).
With `Nc1nncc2[nH]nnc12`, the GI50 in assay [1] was > 100 µM (inactive); in assay [2] it was > 100 µM (inactive); in assay [3], > 100 µM (inactive); in [5], > 100 µM (inactive); in assay [6], > 100 µM (inactive); in assay [20] it was 17.4 µM (inactive). The GI50 in assay [7] was > 100 µM (inactive); in [8] it was 83.6 µM (inactive); in assay [9], > 100 µM (inactive); in assay [10], > 100 µM (inactive); in [11], 0.186 µM (active); in assay [12], 16.5 µM (inactive). Besides, the GI50 in assay [13] is 11 µM (inactive); in assay [14] it was > 100 µM (inactive); in [15], > 100 µM (inactive); in [16], > 100 µM (inactive); in [17], 22.9 µM (inactive); in assay [18], > 100 µM (inactive). Also, the GI50 in [19] was > 100 µM (inactive).
Take `CCC(NC(C)c1ccccc1)C(=O)c1ccc(OCc2ccccc2)c(OCc2ccccc2)c1` (configuration not stated): the GI50 in [1], in assay [2], in [3], in assay [4], in assay [5] and in assay [6] was > 100 µM (inactive) throughout. In addition, the GI50 in assay [8] was > 100 µM (inactive); in assay [9], > 100 µM (inactive); in assay [10] it was > 100 µM (inactive); in assay [11], 4.81 µM (inactive); in assay [12], > 100 µM (inactive); in assay [14], > 100 µM (inactive). Further, the GI50 in assay [15], in [16], in assay [17], in [18] and in assay [19] was > 100 µM (inactive) throughout.
As for `O=C1c2ccccc2NC(c2cc(Cl)cc(Cl)c2O)N1CCc1ccccn1` (configuration not stated), the GI50 in assay [1] is 60.1 µM (inactive); in assay [2], 44.7 µM (inactive); in assay [3] it was > 100 µM (inactive); in assay [4] it was > 100 µM (inactive); in [5], 56.2 µM (inactive); in assay [6] it was 67 µM (inactive). In addition, the GI50 was 97.9 µM (inactive) in assay [7]; 76.7 µM (inactive) in assay [8]; > 100 µM (inactive) in assay [9]; 42.6 µM (inactive) in [10]; > 100 µM (inactive) in assay [11]; > 100 µM (inactive) in assay [12]. Also, the GI50 is 88.9 µM (inactive) in assay [14]; > 100 µM (inactive) in assay [15]; 64.4 µM (inactive) in [16]; 47.5 µM (inactive) in [17]; 97.9 µM (inactive) in assay [18]; > 100 µM (inactive) in assay [19].
Turning to `COC(=O)C1=C(C(=O)OC)SC(=C2SC3=C(SC(=C4SCCS4)S3)S2)S1`, the GI50 in [1], in assay [2], in assay [3], in assay [4], in assay [6] and in assay [20] was > 100 µM (inactive) each time. The GI50 in [7] is > 100 µM (inactive); in [8], > 100 µM (inactive); in assay [9], > 100 µM (inactive); in assay [10], 0.0302 µM (active); in [11], > 100 µM (inactive); in assay [12], > 100 µM (inactive). Also, the GI50 in assay [13], in assay [14], in assay [15], in assay [16], in assay [17] and in assay [18] was > 100 µM (inactive) throughout. In [19], the GI50 is > 100 µM (inactive).
For `CCN(CC)CCN1CCN=C2c3cc(OC)ccc3Nc3c([N+](=O)[O-])ccc1c32`, the GI50 in assay [1] is 0.369 µM (active); in [2] it was 0.843 µM (active); in [4], 1.41 µM (inactive); in [20], 0.288 µM (active); in assay [7], 2.59 µM (inactive); in [8] it was 0.449 µM (active). The GI50 in assay [9] was 0.671 µM (active); in assay [10] it was 1.95 µM (inactive); in assay [11], 0.575 µM (active); in assay [12] it was 1.55 µM (inactive); in assay [13] it was 0.388 µM (active); in [15] it was 1.72 µM (inactive). Moreover, the values for the GI50 in assay [16], in assay [17] and in [18] were 1 µM (active), 0.221 µM (active) and 1.04 µM (active), respectively.
Consider `CC1CCCC2(CC[N+](C)(CCC[N+](C)(C)C)CC2)C1` (configuration not stated), for which the GI50 in assay [1], in assay [2], in [3], in [4], in [5] and in [6] was > 100 µM (inactive) throughout. The GI50 in assay [20], in assay [7], in assay [8], in assay [9], in assay [10] and in assay [11] was > 100 µM (inactive) in each case. For the same compound, the GI50 in assay [12], in [14], in [15], in assay [16], in [17] and in [18] was > 100 µM (inactive) each time. Also, the GI50 in [19] was > 100 µM (inactive).
For `CCCc1cc2c(cc1O)CC[C@@H]1[C@@H]2CC[C@]2(C)[C@@H](O)CC[C@@H]12`, the GI50 in [1] is 13.6 µM (inactive); in [2] it was 10.2 µM (inactive); in [3], 19.5 µM (inactive); in assay [4], 10.5 µM (inactive); in [5], 10.7 µM (inactive); in assay [20], 5.6 µM (inactive). Further, the GI50 was 13.1 µM (inactive) in assay [7]; 3.95 µM (inactive) in [8]; 17.3 µM (inactive) in assay [9]; 13.5 µM (inactive) in [10]; 3.17 µM (inactive) in assay [11]; 10.5 µM (inactive) in assay [12]. Further, the GI50 in assay [13] is 5.41 µM (inactive); in assay [14] it was 12.9 µM (inactive); in [15] it was 15.2 µM (inactive); in assay [16], 10.5 µM (inactive); in assay [17], 3.61 µM (inactive); in assay [18], 2.29 µM (inactive). Moreover, the GI50 in assay [19] is 13.4 µM (inactive).
Regarding `OC[C@H]1O[C@@H](Oc2cc(O)cc(/C=C/c3ccc(O)cc3)c2)[C@H](O)[C@@H](O)[C@@H]1O` [PICEID], the GI50 in assay [1], in [2], in assay [3], in assay [4], in [5] and in [6] was > 100 µM (inactive) each time. Further, the GI50 in assay [20], in [7], in assay [8], in assay [9], in assay [10] and in [11] was > 100 µM (inactive) in each case. For the same compound, the GI50 in assay [12], in assay [13], in [14], in assay [15], in assay [17] and in assay [18] was > 100 µM (inactive) in each case. Moreover, the GI50 in assay [19] was > 100 µM (inactive).

For the origin of these results see ChEMBL document CHEMBL1201862, “PubChem BioAssay data set” (2004).
